Assay results as given in patent publication US12042499B2, “Administration of aurora kinase inhibitor and chemotherapeutic agents” (Millennium Pharmaceuticals, Inc., priority 2015, dated 2024).

What was measured:
Assay type in all cases: in vivo, female Athymic NCr nu/nu mice
[1] = tested on: NCI-H82 small cell lung tumor; test: NCI-H82 xenograft model study 1: alisertib and carboplatin
Protocol: NCI-H82 1: […] Those animals selected with tumors in the proper volume range were randomized into 9 treatment and control groups (n=10/group) so that the median tumor volumes on the first day of treatment were as close as possible (206-219 mm^3). […] The suspension was diluted to 4 mg/mL with 2% sodium bicarbonate (NaHCO3) in WFI. The final composition of the alisertib vehicle was 10% HPBCD/1% NaHCO3 in WFI. The 4 mg/mL solution was diluted to 2 mg/mL with complete vehicle for the lower dose. The alisertib dosing formulations were stored in brown bottles at room temperature during the dosing period. […] A 10 mg/mL stock solution of carboplatin (Hospira, Inc.) was diluted each day of treatment with saline. […] Tumors were measured twice weekly using vernier calipers. […] Tumor size and body weight were measured approximately twice a week for the duration of the study. […] Tumor growth continued to be monitored after the dosing period in some studies. […] For each animal, the log tumor volume at the day of treatment initiation is subtracted from the log tumor volume on the subsequent days. This difference vs. time is used to calculate an area under the curve (AUC) for each animal using the trapezoid rule. In instances when an animal in a treatment group is removed early from the study, the last observed tumor value is carried forward through all subsequent time points. The synergy score for the combination of agents A and B is defined as 100*(mean(AUCAB)-mean(AUCA)-mean(AUCB)+mean(AUCctl))/mean(AUCctl): where AUCAB, AUCA, AUCB, and AUCctl are the AUC values for animals in the combination group, the A group, the B group, and the control group, respectively. The standard error of the synergy score is computed based on the variation in the AUC values among the animals. […] If the P-value is above 0.05, then the combination is considered to be additive. If the P-value is below 0.05, and the synergy score is less than zero, then the combination is considered to be synergistic. If the P-value is below 0.05 and the synergy score was greater than zero, but the mean AUC for the combination was […] than the lowest mean AUC among the two single agent treatments, then the combination was sub-additive. If the P-value is below 0.05 and if the synergy score was greater than zero, and the mean AUC for the combination was greater than the mean AUC for at least one of the single agent treatments, then the combination was antagonistic. […] In the combination treatment groups alisertib was administered first, followed immediately by the administration of carboplatin. One group served as a vehicle-treated control group (Group 1) receiving PO treatment with the vehicle used for administration of alisertib in treatment groups on a QDx21 schedule.

[2] = tested on: NCI-H82 small cell lung tumor; test: NCI-H82 xenograft model study 2: alisertib and cisplatin
Description: NCI-H82 2: A thirty-to-forty mg fragment of NCI-H82 small cell lung tumor, propagated in an in vivo passage, was implanted SC in the area of the right flank of female Athymic NCr nu/nu mice (age 5 weeks, Charles River Laboratories, Wilmington, MA) using a 12-gauge trocar needle. Tumors were allowed to reach 100-245 mm^3 in volume before the start of treatment. A sufficient number of mice were implanted so that tumors in a volume range as narrow as possible were selected for the trial on the day of treatment initiation (day 14 after tumor implantation, designated as SD, or Day 0). Those animals selected with tumors in the proper volume range were randomized into 9 treatment and control groups (n=10/group) so that the median tumor volumes on the first day of treatment were as close as possible (196-198 mm^3).
(§1) An 8 mg/mL suspension of alisertib was formulated weekly by adding a half volume of 20% HPBCD in water for injection (WFI) to the alisertib powder, then mixing by vortexing, and sonicating for one minute. The suspension was diluted to 4 mg/mL with 2% sodium bicarbonate (NaHCO3) in WFI. The final composition of the alisertib vehicle was 10% HPBCD/1% NaHCO3 in WFI. The 4 mg/mL solution was diluted to 2 mg/mL with complete vehicle for the lower dose. The alisertib dosing formulations were stored in brown bottles at room temperature during the dosing period. All alisertib injections were administered on the basis of exact animal body weight on each day of treatment, using an injection volume of 0.05 mL/10 g body weight.
(§2) A 1 mg/mL stock solution of cisplatin (Cisplatin Injection, PCH […]) was diluted each day of treatment with saline to 0.8 and 0.4 mg/mL. Cisplatin injections were administered on the basis of exact animal body weight on each day of treatment, using an injection volume of 0.05 mL/10 g body weight.
(§3) Tumors were measured twice weekly using vernier calipers. Tumor volumes were calculated using standard procedures V=W^2×L/2). When mean tumor volumes reached approximately 206-219 mm^3 for NCI-H82 1, 196-198 mm^3 for NCI-H82 2, or 169-174 mm^3 for NCI-H69, mice were randomized into groups of n=10/arm as described in the tables below, and injected with vehicle, alisertib or agents (cisplatin, or carboplatin), or the combination of alisertib plus one of the agents, at various doses and schedules as described below in Tables 1a, 2a and 3a. Tumor size and body weight were measured approximately twice a week for the duration of the study. […] Tumor growth continued to be monitored after the dosing period in some studies. […]
(§4) Measurements from the day of treatment initiation to Day 20 or Day 21 following treatment initiation are analyzed as specified in Tables below. […]

[3] = tested on: NCI-H69 small cell lung tumor; test: NCI-H69 xenograft model: alisertib and cisplatin
Description: NCI-H69: A thirty-to-forty mg fragment of NCI-H69 small cell lung tumor, propagated in an in vivo passage, was implanted SC in the area of the right flank of female Athymic NCr nu/nu nice (age 6 weeks, Charles River Laboratories, Frederick, MD) using a 12-gauge trocar needle. Tumors were allowed to reach 100-245 mm^3 in volume before the start of treatment. A sufficient number of mice were implanted so that tumors in a volume range as narrow as possible were selected for the trial on the day of treatment initiation (day 24 after tumor implantation, designated as SD, or Day 0). Those animals selected with tumors in the proper volume range were randomized into 9 treatment and control groups (n=10/group) so that the mean tumor volumes on the first day of treatment were as close as possible (169-174 mm^3).
as §1, §2, §3, §4

Compound: COc1cc(Nc2ncc3c(n2)-c2ccc(Cl)cc2C(c2c(F)cccc2OC)=NC3)ccc1C(=O)O [Alisertib, 4-{[9-chloro-7-(2-fluoro-6-methoxyphenyl)-5H-pyrimido[5,4-d][2]benzazepin-2-yl]amino}-2-methoxybenzoic acid]
- Tumor Volume Day 21 ([1]; 10 mg/kg Alisertib QDx21 PO): 1701 mm^3
- Tumor Volume Day 21 ([1]; 20 mg/kg Alisertib QDx21 PO): 1640 mm^3
- Tumor Volume Day 20 ([2]; 10 mg/kg Alisertib QDx21 PO): 1578 mm^3
- Tumor Volume Day 20 ([2]; 20 mg/kg Alisertib QDx21 PO): 1461 mm^3
- Tumor Volume Day 20 ([3]; 10 mg/kg Alisertib QDx21 PO): 374 mm^3
- Tumor Volume Day 20 ([3]; 20 mg/kg Alisertib QDx21 PO): 149 mm^3

Compound: N.N.O=C([O-])C1(C(=O)[O-])CCC1.[Pt+2] [Carboplatin, carboplatin]
- Tumor Volume Day 21 ([1]; 25 mg/kg Carboplatin Q7Dx3 IP): 1373 mm^3
- Tumor Volume Day 21 ([1]; 75 mg/kg Carboplatin Q7Dx3 IP): 965 mm^3

Compound: N.N.[Cl][Pt][Cl] [Cisplatin, cisplatin]
- Tumor Volume Day 20 ([2]; 2 mg/kg Cisplatin Q4Dx3 IP): 1429 mm^3
- Tumor Volume Day 20 ([2]; 4 mg/kg Cisplatin Q4Dx3 IP): 1270 mm^3
- Tumor Volume Day 20 ([3]; 2 mg/kg Cisplatin Q4Dx3 IP): 604 mm^3
- Tumor Volume Day 20 ([3]; 4 mg/kg Cisplatin Q4Dx3 IP): 300 mm^3
